This is an account of results in PMC8848508 (ACS Central Science, 2022).

Broadly, the EC50 is the concentration giving half of the maximal effect.

Test [1] deals with SARS-CoV-2. As to conditions: read-out: antiviral EC50, primary CPE assay, cited from earlier work.
Test [2] has as its system SARS-CoV-2. Conditions: read-out: antiviral EC50; cited from earlier work.
Test [3] deals with SARS-CoV-2. As to conditions: read-out: antiviral EC50; genomic RNA quantification; cited from earlier work.
The target of test [4] is SARS-CoV-2 M^Pro (Severe acute respiratory syndrome coronavirus 2, UniProt P0DTD1). Type of test: biochemical. As to conditions: at 16 μM inhibitor.

Like-named read-outs stand apart in the source and are kept apart here.

`CC(C)COCC(CN(Cc1ccccc1)c1ccccc1)N1CCCC1` (centres unmarked) [bepridil]: the EC50 in test [1] (ACE2+ A549 cells) was 460 nM.

Turning to `CC(C)(C)NC(=O)N[C@H](C(=O)N1C[C@H]2[C@@H]([C@H]1C(=O)NC(CC1CCC1)C(=O)C(N)=O)C2(C)C)C(C)(C)C` (some centres unmarked) [boceprevir], the EC50 in test [1] is 1310 ± 580 nM; in test [2], 15600 nM. For `CCCCCCNC(=O)n1cc(F)c(=O)[nH]c1=O` [carmofur], the EC50 in test [3] was above 100000 nM.

Consider `CCN(CC)CCCC(C)Nc1ccnc2cc(Cl)ccc12` (centres unmarked) [chloroquine], for which the “M^Pro retained activity” value in test [4] is listed as 84%.
